These results are taken from ChEMBL document CHEMBL1201862, “PubChem BioAssay data set” (2004).

Some test systems named below: 786-0; A498; CAKI-1; CCRF-CEM; DU-145; HCC 2998; HCT-15; HOP-62; HOP-92; HT-29; Hs-578T; K562; KM12; M14; NCI-H23; NCI-H460; OVCAR-3; SF-539; SK-MEL-5; TK-10.
Holding throughout (experiment): NCI tumour cell line growth inhibition, 48 h

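Following 48 hours of exposure in 96-well plates, responses at five concentrations were used to interpolate endpoints linearly. Abbreviation: GI50, concentration required for 50% inhibition of growth.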 Active and inactive are the calls of the source. No stated cut-off is given here; in the data, active = GI50 up to about 1.1 µM and inactive = higher.

On to `O=C1c2cccc3cccc(c23)C(=O)N1CCCNCCCNCCCCNCCCNCCCN1C(=O)c2cccc3cccc(c23)C1=O`, for which the GI50 is 1.07 µM (active) in the experiment on 786-0; 6.38 µM (inactive) in the experiment with A498; 12.9 µM (inactive) in the experiment with CAKI-1; 0.479 µM (active) in the experiment on CCRF-CEM; 3.66 µM (inactive) with DU-145; 3.52 µM (inactive) with HCC 2998. Also, the GI50 in the experiment on HCT-15 was 12.8 µM; in the experiment on HOP-62 it was 3.79 µM (inactive); in the experiment on HOP-92, 5.05 µM (inactive); with HT-29 it was 1.39 µM (inactive); in the experiment with Hs-578T, 1.68 µM (inactive); in the experiment on K562, 3.25 µM (inactive). For the same compound, the GI50 is 2.74 µM (inactive) in the experiment on KM12; 4.06 µM (inactive) with M14; 2.12 µM (inactive) with NCI-H23; 1.9 µM (inactive) in the experiment with NCI-H460; 4.67 µM (inactive) in the experiment with OVCAR-3; 3.52 µM (inactive) in the experiment with SF-539. Moreover, the results for the GI50 in the experiment with SK-MEL-5 and with TK-10 were 5.93 µM (inactive) and 11.6 µM (inactive), respectively.
With `c1ccc2c(c1)CCN(C1=NCCO1)C2`, the GI50 with 786-0, with A498, in the experiment on CAKI-1, in the experiment on CCRF-CEM, in the experiment with DU-145 and in the experiment on HCC 2998 was > 10 µM (inactive) each time. The GI50 is above 10 µM in the experiment with HCT-15; > 10 µM (inactive) in the experiment on HOP-62; > 10 µM (inactive) in the experiment on HOP-92; > 10 µM (inactive) in the experiment with HT-29; > 10 µM (inactive) in the experiment on Hs-578T; > 10 µM (inactive) in the experiment on K562. Moreover, the GI50 in the experiment with KM12, in the experiment on M14, with NCI-H23, in the experiment on NCI-H460, in the experiment with OVCAR-3 and in the experiment on SF-539 was > 10 µM (inactive) in each case. Further, the GI50 with SK-MEL-5 and in the experiment on TK-10 was > 10 µM (inactive) throughout.
For the compound `CCOC(=O)C(SCCO)C(C(=O)OCC)n1cnc2c(=O)[nH]c(NC(C)=O)nc21` (stereo not given), the GI50 in the experiment with 786-0, in the experiment on A498, in the experiment on CAKI-1, in the experiment with CCRF-CEM, in the experiment with DU-145 and with HCC 2998 was > 100 µM (inactive) throughout. Further, the GI50 with HCT-15 was above 100 µM; in the experiment with HOP-62, > 100 µM (inactive); in the experiment on HOP-92, > 100 µM (inactive); in the experiment with HT-29, > 100 µM (inactive); in the experiment with Hs-578T, > 100 µM (inactive); with K562, > 100 µM (inactive). Besides, the GI50 in the experiment on KM12, in the experiment on M14, with NCI-H23, in the experiment on NCI-H460, in the experiment on OVCAR-3 and in the experiment with SF-539 was > 100 µM (inactive) each time. Moreover, the GI50 in the experiment with SK-MEL-5 and in the experiment with TK-10 was > 100 µM (inactive) each time.
Consider `CCOC(=O)CCC(NC(=O)c1ccc(OCc2ccc3nc(-c4ccccc4)c(Cl)nc3c2)cc1)C(=O)OCC` (stereo not given), for which the GI50 is 16.6 µM (inactive) with 786-0; 36.1 µM (inactive) in the experiment on A498; > 69 µM (inactive) in the experiment with CAKI-1; > 31.6 µM (inactive) in the experiment with CCRF-CEM; > 31.6 µM (inactive) with DU-145; > 31.6 µM (inactive) with HCC 2998. Also, the GI50 was above 31.6 µM in the experiment on HCT-15; > 31.6 µM (inactive) with HOP-62; 15.6 µM (inactive) in the experiment with HOP-92; > 31.6 µM (inactive) in the experiment on HT-29; 14.9 µM (inactive) in the experiment on Hs-578T; 3.88 µM (inactive) in the experiment on K562. In addition, the GI50 in the experiment with KM12 is > 31.6 µM (inactive); in the experiment with M14, > 31.6 µM (inactive); in the experiment on NCI-H23, 17.2 µM (inactive); in the experiment with NCI-H460, > 31.6 µM (inactive); with OVCAR-3, > 31.6 µM (inactive); with SF-539 it was 15.8 µM (inactive). In addition, the GI50 with SK-MEL-5 was > 31.6 µM (inactive); in the experiment on TK-10, 16.4 µM (inactive).
In the case of `CCCOC(=O)c1cc(O)c(O)c(O)c1` [PROPYL GALLATE], the GI50 is 41.4 µM (inactive) with 786-0; > 100 µM (inactive) in the experiment with A498; > 100 µM (inactive) in the experiment on CAKI-1; > 100 µM (inactive) with CCRF-CEM; 30.3 µM (inactive) in the experiment on DU-145; 45.1 µM (inactive) in the experiment with HCC 2998. In addition, the GI50 in the experiment with HCT-15 was 20.7 µM; in the experiment on HOP-62, 33.8 µM (inactive); in the experiment with HOP-92, 60.4 µM (inactive); in the experiment on HT-29, 32.2 µM (inactive); in the experiment with Hs-578T, 17.5 µM (inactive); in the experiment with K562, > 100 µM (inactive). The GI50 was 20.5 µM (inactive) in the experiment with KM12; 20.8 µM (inactive) with M14; > 100 µM (inactive) with NCI-H23; 30.1 µM (inactive) in the experiment on NCI-H460; 25.7 µM (inactive) in the experiment on OVCAR-3; 10.9 µM (inactive) in the experiment with SF-539. In addition, the GI50 in the experiment on SK-MEL-5 is 59.3 µM (inactive); with TK-10 it was > 100 µM (inactive).
Take `COc1ccc(C2c3c(-c4ccccc4)nn(-c4ccccc4)c3Oc3ncn(N)c(=N)c32)cc1OC` (stereo not given): the GI50 with 786-0 is 1.67 µM (inactive); with A498, 7.16 µM (inactive); in the experiment on CAKI-1, 1.86 µM (inactive); with CCRF-CEM it was 2.56 µM (inactive); in the experiment with DU-145, 2.89 µM (inactive); in the experiment with HCC 2998, 1.74 µM (inactive). The GI50 in the experiment with HCT-15 is 1.84 µM; with HOP-62, 1.77 µM (inactive); in the experiment on HOP-92 it was 2.33 µM (inactive); in the experiment with HT-29 it was 1.93 µM (inactive); in the experiment on Hs-578T, 1.97 µM (inactive); with K562, 3.82 µM (inactive). Also, the GI50 with KM12 was 1.83 µM (inactive); in the experiment on M14, 2.04 µM (inactive); in the experiment with NCI-H23 it was 2.54 µM (inactive); with NCI-H460, 1.71 µM (inactive); with OVCAR-3 it was 1.63 µM (inactive); with SF-539, 1.69 µM (inactive). Moreover, the figures for the GI50 in the experiment on SK-MEL-5 and in the experiment with TK-10 were 1.94 µM (inactive) and 1.95 µM (inactive), respectively.
As to `CCc1nc(N)nc(N)c1-c1ccc(Cl)c(/N=C/N(C)C)c1`, the GI50 is 22.8 µM (inactive) in the experiment on 786-0; 86.9 µM (inactive) in the experiment on A498; 53.8 µM (inactive) with CAKI-1; 30.3 µM (inactive) in the experiment on CCRF-CEM; 81.1 µM (inactive) in the experiment on DU-145; 41.2 µM (inactive) in the experiment with HCC 2998. Further, the GI50 is 10.4 µM with HCT-15; 63.7 µM (inactive) with HOP-62; > 90.4 µM (inactive) in the experiment with HOP-92; 18.8 µM (inactive) in the experiment on HT-29; > 100 µM (inactive) in the experiment with Hs-578T; 6.03 µM (inactive) in the experiment with K562. The GI50 in the experiment with KM12 is 61.7 µM (inactive); with M14, 52.5 µM (inactive); in the experiment on NCI-H23, 28.6 µM (inactive); in the experiment on NCI-H460 it was 5.22 µM (inactive); with OVCAR-3, 65.6 µM (inactive); with SF-539, 45.3 µM (inactive). Also, the values for the GI50 in the experiment on SK-MEL-5 and with TK-10 were 29.9 µM (inactive) and > 100 µM (inactive), respectively.
